Results on 3 molecules are retold here after paper PMC9866095, “Efficient Synthesis and In Vitro Hypoglycemic Activity of Rare Apigenin Glycosylation Derivatives” (Molecules, 2023).

What is called IC50 is the point on the concentration scale where inhibition reaches its midpoint. Low values mean higher potency, high ones lower potency.

The target in the assay is α-glucosidase. The assay can be described thus: pNPG hydrolysis, absorbance at […] nm, commercial enzyme. Type of assay: biochemical.
Molecule `O=c1cc(-c2ccc(O)cc2)oc2cc(O)cc(O)c12` [Apigenin] had an IC50 of 525 µM. `O=c1cc(-c2ccc(O)cc2)oc2cc(O[C@@H]3O[C@H](CO)[C@@H](O)[C@H](O)[C@H]3O)cc(O)c12` [AG, apigenin-7-O-β-(6″-O)-D-glucoside] registered a half-maximal inhibitory concentration (IC50) of 532 µM. The IC50 values of the last two molecules are within 1.5-fold of each other. `O=C(O)CCC(=O)OC[C@H]1O[C@@H](Oc2cc(O)c3c(=O)cc(-c4ccc(O)cc4)oc3c2)[C@H](O)[C@@H](O)[C@@H]1O` [SAG, apigenin-7-O-β-(6″-O-succinyl)-D-glucoside]: the IC50 turned out to be 485 µM. The IC50 values of the last two molecules are within 1.5-fold of each other.
